Data on eight molecules can be found in article PMC10475017, “Design, synthesis, computational study and cytotoxic evaluation of some new quinazoline derivatives containing pyrimidine moiety” (Scientific Reports, 2023).

Data set [1] has as its system A549 cell line. Put plainly: Annexin V/PI apoptosis detection by flow cytometry. Format: cell-based, human. The note with it: 72 h. As for the experimental part: Annexin V was applied to detect the phosphatidyl serin, which moved to outer membrane during apoptosis, and PI was used to distinguish live and dead cells.
After the incubation time, AnnexinV/PI staining using eBioscience™ Annexin V apoptosis detection kit (Invitrogen). The cells were gently harvested and washed once with 1X phosphate buffered saline (PBS), and once with 1000 μL 1X binding buffer. In the next step, the cells were suspended in 100 μL binding buffer containing 5 μL fluorescein isothiocyanate conjugated (FITC) Annexin V for 15 min and 5 μL Propodium Iodide (PI) solution. The cells were then acquired on BD FACS Calibur™ flow cytometry (BD Biosciences, San Jose, CA, USA) and apoptosis rates were calculated as the sum of early apoptosis and late apoptosis using Flowjo software.
In general terms: A flow cytometer gives signals particle by particle.

For data set [2], the system named is A549 cell line. Put plainly: Cell cycle analysis by PI flow cytometry. Format: cell-based, human. The note with it: 72 h; for cell cycle S population: untreated cells 4.46%. As for the experimental part:
For this purpose, A549 cells were treated with two concentrations of 6n (10 and 15 μM) for 72 h (Fig. 6). […] A slight decrease in the G2/M population was also observed.
The effect of 6n was also assessed according to our previous protocol. Briefly, 1 × 10^5 A549 cells were seeded in a 24-well plate in […] complete cell culture media and after 24 h, were treated with two concentrations of 6n (10 and 15 μM). After 72 h, the cells were harvested and washed twice with cold 1X pbs and stabilized with cold ethanol (70%) in drop-wised manner while vortexing. After keeping one day in the freezer, the fixed cells were washed with 1X pbs and treated with a mixture of ribonuclease (10 µg/ml) (Sigma-Aldrich, Germany) to remove RNA, and Propidium Iodide (PI, 20 µg/ml) (Sigma-Aldrich, Germany) to stain DNA. The cells were acquired on BD FACS Calibur™ flow cytometry (BD Biosciences, San Jose, CA, USA). The data were analyzed with FlowJo software packages version 10.

`Cn1c(=O)cc(Cl)n(Cc2nc3ccc(Br)cc3c(=O)n2-c2ccccc2)c1=O` [Compound 6a, 1-((6-Bromo-4-Oxo-3-Phenyl-3,4-Dihydroquinazolin-2-Yl)Methyl)-6-Chloro-3-Methylpyrimidine-2,4(1H,3H)-Dione] came in with a melting point of 246 to 248 °C.
In turn, `Cn1c(=O)cc(Cl)n(Cc2nc3ccc(Br)cc3c(=O)n2-c2cccc(C#N)c2)c1=O` [Compound 6b, 3-(6-Bromo-2-((6-Chloro-3-Methyl-2,4-Dioxo-3,4-Dihydropyrimidin-1(2H)-Yl)Methyl)-4-Oxoquinazolin-3(4H)-Yl) Benzonitrile] displayed a melting point of 255 to 257 °C.
Still for that read-out and setting: with `Cn1c(=O)cc(Cl)n(Cc2nc3ccc(Br)cc3c(=O)n2-c2cccc(F)c2)c1=O` [Compound 6c, 1-((6-Bromo-3-(3-Fluorophenyl)-4-Oxo-3,4-Dihydroquinazolin-2-Yl)Methyl)-6-Chloro-3-Methylpyrimidine-2,4(1H,3H)-Dione] the figure was 243 to 244 °C; with `Cn1c(=O)cc(Cl)n(Cc2nc3ccc(Br)cc3c(=O)n2-c2cccc(Cl)c2)c1=O` [Compound 6d, 1-((6-Bromo-3-(3-Chlorophenyl)-4-Oxo-3,4-Dihydroquinazolin-2-Yl)Methyl)-6-Chloro-3-Methylpyrimidine-2,4(1H,3H)-Dione], 259 to 260 °C.
On the same count and under the same terms, with `Cn1c(=O)cc(Cl)n(Cc2nc3ccc(Br)cc3c(=O)n2-c2cccc(Br)c2)c1=O` [Compound 6e, 1-((6-Bromo-3-(3-Bromophenyl)-4-Oxo-3,4-Dihydroquinazolin-2-Yl)Methyl)-6-Chloro-3-Methylpyrimidine-2,4(1H,3H)-Dione] the figure was 251 to 252 °C.
`Cn1c(=O)cc(Cl)n(Cc2nc3ccc(Br)cc3c(=O)n2-c2ccc(F)cc2)c1=O` [Compound 6f., 1-((6-Bromo-3-(4-Fluorophenyl)-4-Oxo-3,4-Dihydroquinazolin-2-Yl)Methyl)-6-Chloro-3-Methylpyrimidine-2,4(1H,3H)-Dione] yielded a melting point of 240 to 242 °C.
The same measure, in the same setting: with `Cn1c(=O)cc(Cl)n(Cc2nc3ccc(Br)cc3c(=O)n2-c2ccc(Cl)cc2)c1=O` [Compound 6g, 1-((6-Bromo-3-(4-Chlorophenyl)-4-Oxo-3,4-Dihydroquinazolin-2-Yl)Methyl)-6-Chloro-3-Methylpyrimidine-2,4(1H,3H)-Dione] the figure was 225 to 226 °C.
`Cn1c(=O)cc(Cl)n(Cc2nc3ccc(Br)cc3c(=O)n2-c2ccc(F)c(Cl)c2)c1=O` [Compound 6n, 1-((6-Bromo-3-(3-Chloro-4-Fluorophenyl)-4-Oxo-3,4-Dihydroquinazolin-2-Yl)Methyl)-6-Chloro-3-Methylpyrimidine-2,4(1H,3H)-Dione]: in the data set on A549 cell line [1] (5 µM), the “early apoptotic cells Q3 (Av pos/PI neg)” value is 2.61% and the “late apoptotic cells Q2 (Av pos/PI pos)” value was found to be 21.2%. The “apoptotic death (sum of early and late apoptosis)” value in the data set on A549 cell line [1] (15 µM) stood at 65.08%. In addition, the “induction of apoptosis (in words)” value in the data set on A549 cell line [1] (5, 10, 15 µM) is on record as “significantly induced apoptotic death in the dose dependent manner”. In the data set on A549 cell line [2] (10 μM), the “cell cycle S population” value was 8.91%. Also, the “cell cycle S population” value in the data set with A549 cell line [2] (15 μM) turned out to be 11.6%. In the data set on A549 cell line [2] (10 and 15 μM), the “effect on cell cycle (in words)” value is “could induce arrest at S-phase”.

By melting point is commonly meant the temperature of the solid-liquid transition.
